This note sets out measurements from patent US10087212B2, “Crystal form of Abiraterone propionate and preparation method therefor” (CHONGQING PHARMACEUTICAL RESEARCH INSTITUTE CO., LTD, priority 2015, dated 2018).

This data set is described as follows: Stability test of crystal forms (40±2° C., RH 75±5%, 3 months). The class given is physicochemical. To be noted: for Crystal appearance / Melting point / Purity / Specific optical rotation: stability test. On the procedure: The crystal forms obtained in Examples 2 to 4 were placed under an environment having a temperature of 40±2° C. and a humidity of RH 75±5% for 3 months. The melting point, specific optical rotation, purity and crystal appearance were measured on 0 day, 1-month, 2-month and 3-month, respectively.

Where [1] appears, read: 3 months, conclusion from Table 2.

As to `CCC(=O)O[C@H]1CC[C@@]2(C)C(=CC[C@@H]3[C@@H]2CC[C@]2(C)C(c4cccnc4)=CC[C@@H]32)C1` [Example 2, (3β)-17-(3-pyridyl)-androstane-5,16-dien-3-ol propionate], the Crystal appearance result is on record as “No change” (0 month), “No change” (1 month), “No change” (2 months) and “No change” (3 months). The Melting point was 109.5~110.4 °C (0 month), 109.4~110.3 °C (1 month), 109.4~110.5 °C (2 months) and 109.8~110.5 °C (3 months). For the same compound, the Purity amounted to 99.88 (0 month), 99.86 (1 month), 99.82 (2 months) and 99.81 (3 months). In addition, the Specific optical rotation is, setting by setting: (0 month) −44.32°; (1 month) −44.06°; (2 months) −43.67°; (3 months) −44.23°.
Turning to `CCC(=O)O[C@H]1CC[C@@]2(C)C(=CC[C@@H]3[C@@H]2CC[C@]2(C)C(c4cccnc4)=CC[C@@H]32)C1` [Example 3, (3β)-17-(3-pyridyl)-androstane-5,16-dien-3-ol propionate], under “0 month”, the Crystal appearance entry is listed as “No change”, the Melting point is 109.7~110.6 °C, the Purity was 99.89 and the Specific optical rotation is listed as −44.34°. In addition, for the setting “1 month”, the Crystal appearance result is recorded as “No change”, the Melting point was 109.4~110.4 °C, the Purity is 99.87 and the Specific optical rotation was −44.21°. For the setting “2 months”, the Crystal appearance result is recorded as “No change”, the Melting point is 109.5~110.0 °C, the Purity came to 99.84 and the Specific optical rotation is −44.05°. For the same compound, where the note is “3 months”, the Crystal appearance result is reported as “No change”, the Melting point was 109.8~110.6 °C, the Purity worked out at 99.82 and the Specific optical rotation is on record as −43.99°.
For the compound `CCC(=O)O[C@H]1CC[C@@]2(C)C(=CC[C@@H]3[C@@H]2CC[C@]2(C)C(c4cccnc4)=CC[C@@H]32)C1` [Example 4, (3β)-17-(3-pyridyl)-androstane-5,16-dien-3-ol propionate], the Crystal appearance entry runs as follows: (0 month) “No change”; (1 month) “No change”; (2 months) “No change”; (3 months) “No change”. For the same compound, the Melting point runs as follows: (0 month) 109.6~110.5 °C; (1 month) 109.4~110.4 °C; (2 months) 109.5~110.7 °C; (3 months) 109.7~110.6 °C. Also, the Purity runs as follows: (0 month) 99.86; (1 month) 99.83; (2 months) 99.81; (3 months) 99.79. The Specific optical rotation by setting is: (0 month) −44.46°; (1 month) −44.13°; (2 months) −44.08°; (3 months) −43.92°.
Consider `CCC(=O)O[C@H]1CC[C@@]2(C)C(=CC[C@@H]3[C@@H]2CC[C@]2(C)C(c4cccnc4)=CC[C@@H]32)C1` [crystal form of Abiraterone propionate, (3β)-17-(3-pyridyl)-androstane-5,16-dien-3-ol propionate], for which, under setting [1], the Crystal transformation entry is on record as “no crystal transformation occurred” and the Stability entry is recorded as “good stability”.
